Test results published in patent US6635641B2 (Agouron Pharmaceuticals, Inc., priority 2000, dated 2003).
Structures can show the parent of a compound that is named as a salt. Where two headings read alike, the source gives them in different places.

Assays:
[1] = molecular target: T1, unphosphorylated VEGF-R2Δ50 (FLVK) (Homo sapiens, UniProt P35968, DEL940-989/E990V); assay: VEGF-R2 coupled spectrophotometric assay, unphosphorylated construct (FLVK); format: biochemical;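 also: Baculovirus-expressed cytosolic kinase domain, ADP formation linked via pyruvate kinase and lactate dehydrogenase to NADH oxidation, read as falling absorbance at 340 nm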
T1 construct: VEGF-R2Δ50 contains residues 806-939 and 990-1171; made in house; host or cells: baculovirus/insect cells
T1 sequence (P35968 with tags, fused parts or gaps DEL940-989/E990V limits assumed): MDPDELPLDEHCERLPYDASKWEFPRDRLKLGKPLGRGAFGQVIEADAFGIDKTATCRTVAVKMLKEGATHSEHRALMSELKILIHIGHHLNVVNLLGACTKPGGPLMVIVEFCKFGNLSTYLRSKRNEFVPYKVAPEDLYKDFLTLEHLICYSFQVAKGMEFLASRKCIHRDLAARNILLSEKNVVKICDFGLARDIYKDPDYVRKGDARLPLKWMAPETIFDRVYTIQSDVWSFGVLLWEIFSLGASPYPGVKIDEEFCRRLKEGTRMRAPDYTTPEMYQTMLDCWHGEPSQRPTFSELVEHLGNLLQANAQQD

[2] = molecular target: T2, FGF-R1 intracellular kinase domain (Homo sapiens, UniProt P11362, C488A/C584S/L457V); assay: FGF-R spectrophotometric assay; format: biochemical; details: for inhibition at 1 µM: read-out: FGF-P percent inhibition; for Ki: read-out: FGF-P Ki
T2 construct: starting from the endogenous methionine residue 456 to glutamate 766; made in house; host or cells: baculovirus expression system
T2 sequence (P11362 456-766 L457V/C488A/C584S): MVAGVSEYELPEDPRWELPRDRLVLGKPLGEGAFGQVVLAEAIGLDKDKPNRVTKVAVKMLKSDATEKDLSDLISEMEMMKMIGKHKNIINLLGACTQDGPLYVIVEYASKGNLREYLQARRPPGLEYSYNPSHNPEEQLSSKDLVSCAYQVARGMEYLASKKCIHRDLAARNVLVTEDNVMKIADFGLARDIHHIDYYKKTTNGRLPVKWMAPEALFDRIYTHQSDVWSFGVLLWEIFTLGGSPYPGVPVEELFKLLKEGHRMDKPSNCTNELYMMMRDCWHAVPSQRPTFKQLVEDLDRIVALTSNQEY

LCK tyrosine kinase = molecular target: T3, LCK tyrosine kinase (Homo sapiens, UniProt P06239, C224D/P223M); assay: LCK spectrophotometric assay; format: biochemical; details: for inhibition at 1 µM: read-out: LCK-P percent inhibition; for Ki: read-out: LCK-P Ki;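 as to all read-outs here: recombinant LCK kinase activity on poly(E4Y1), ADP formation coupled through PK/LDH to NADH oxidation, followed as absorbance loss at 340 nm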
T3 construct: starting from amino acid residue 223 to the end of the protein at residue 509; made in house; host or cells: insect cells
T3 sequence (P06239 223-509 P223M/C224D): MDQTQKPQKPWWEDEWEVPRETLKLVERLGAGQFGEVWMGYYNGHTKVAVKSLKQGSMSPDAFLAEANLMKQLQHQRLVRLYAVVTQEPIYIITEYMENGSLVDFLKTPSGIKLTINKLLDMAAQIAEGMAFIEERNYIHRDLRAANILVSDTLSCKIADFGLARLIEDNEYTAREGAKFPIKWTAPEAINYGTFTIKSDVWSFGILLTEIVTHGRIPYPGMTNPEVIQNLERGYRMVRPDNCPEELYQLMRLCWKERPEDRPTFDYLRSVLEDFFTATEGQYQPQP

[3] = molecular target: T4, TEK/Tie-2 intracellular kinase domain (Homo sapiens, UniProt Q02763); assay: TEK/Tie-2 spectrophotometric assay; format: biochemical; details: read-out: TEK-P percent inhibition
T4 construct: residues 775 to 1124, with methionine added at the N-terminus; made in house; host or cells: baculovirus expression system
T4 sequence (Q02763 775-1124): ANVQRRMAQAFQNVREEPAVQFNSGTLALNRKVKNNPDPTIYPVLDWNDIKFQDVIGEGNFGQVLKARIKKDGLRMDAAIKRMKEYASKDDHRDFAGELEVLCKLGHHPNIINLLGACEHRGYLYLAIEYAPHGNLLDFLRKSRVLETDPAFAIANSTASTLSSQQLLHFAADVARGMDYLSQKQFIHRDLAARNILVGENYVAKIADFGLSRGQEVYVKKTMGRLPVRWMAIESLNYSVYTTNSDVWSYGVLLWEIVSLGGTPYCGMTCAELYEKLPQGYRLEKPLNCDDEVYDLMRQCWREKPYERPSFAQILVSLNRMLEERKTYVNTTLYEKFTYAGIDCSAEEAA
Description: The intracellular kinase domain (residues 775 to 1124, with methionine added at the N-terminus) of human TEK/Tie-2 was expressed using the baculovirus vector expression system. For assay purposes, the enzyme was autophosphorylated prior to use by incubation overnight at 4° C., at 10 μM enzyme concentration, with 4 mM ATP, 40 mM MgCl2, and 5 mM DTT in 200 mM Hepes buffer at ph 7.5, in 90:10 water:glycerol.
The production of ADP from ATP that accompanies phosphoryl transfer was coupled to oxidation of NADH using phosphoenolpyruvate (PEP) and a system having pyruvate kinase (PK) and lactic dehydrogenase (LDH). The oxidation of NADH was monitored by following the decrease of absorbance at 340 nm (e340=6.22 cm^−1 mM^−1) using a Beckman DU 650 spectrophotometer. Assay conditions for phosphorylated VEGF-R2Δ50 (indicated as FLVK-P in the tables below) were the following: 1 mM PEP; 250 μM NADH; 50 units of LDH/mL; 20 units of PK/mL; 5 mM DTT; 5.1 mM poly(E4Y1); 1 mM ATP; and 25 mM MgCl2 in 200 mM Hepes, pH 7.5. Assay conditions for unphosphorylated VEGF-R2Δ50 (indicated as FLVK in the tables) were the following: 1 mM PEP; 250 μM NADH; 50 units of LDH/mL; 20 units of PK/mL; 5 mM DTT; 20 mM poly(E4Y1); 3 mM ATP; and 60 mM MgCl2 and 2 mM MnCl2 in 200 mM Hepes, pH 7.5. Assays were initiated with 5 to 40 nM of enzyme. Ki values were determined by measuring enzyme activity in the presence of varying concentrations of test compounds. The data were analyzed using Enzyme Kinetic and Kaleidagraph software.
The spectrophotometric assay was carried out as described above for VEGF-R2, except for the following changes in concentration: TEK/Tie-2=200 nM, MgCl2=40 mM, and ATP=2 mM.

[4] = system: human umbilical vein endothelial cells (HUVEC); assay: HUVEC proliferation assay (VEGF-stimulated, MTT); format: cell-based; details: Homo sapiens
How it was run: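 Exponentially growing HUVEC (passage 3-4) were serum-starved 24 h in F12K + 1% FBS, given test compound (final DMSO 0.1%), then stimulated 1 h later with VEGF at 6 ng/ml final. Proliferation read after 72 h by 4 h MTT dye reduction, absorbance at 595.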

[5] = system: lung cancer cells (line MV522); assay: Cancer cell proliferation (MV522) assay (MTT); format: cell-based
How it was run: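 Proliferation was read by MTT reduction 72 h after compound addition, in a 4-day protocol with no starvation step. Two thousand MV522 cells were seeded in RPMI1640 with 10% FBS and 2 mM glutamine and given 1 day to attach before dosing.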

[6] = molecular target: T5, phosphorylated VEGF-R2Δ50 (FLVK-P) (Homo sapiens, UniProt P35968, DEL940-989/E990V); assay: VEGF-R2 coupled spectrophotometric assay, phosphorylated construct (FLVK-P); format: biochemical
T5 construct: VEGF-R2Δ50 contains residues 806-939 and 990-1171; made in house; host or cells: baculovirus/insect cells
T5 sequence (P35968 with tags, fused parts or gaps DEL940-989/E990V limits assumed): as the sequence (P35968 with tags, fused parts or gaps DEL940-989/E990V limits assumed) above
How it was run: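 Baculovirus-expressed VEGF-R2Δ50 (residues 806-939/990-1171, E990V), optionally autophosphorylated; ADP formation coupled via PK/LDH to NADH oxidation at 340 nm, pH 7.5 Hepes. FLVK-P: 1 mM ATP, 5.1 mM poly(E4Y1), 25 mM MgCl2; FLVK: 3 mM ATP, 20 mM poly(E4Y1), 60 mM MgCl2, 2 mM MnCl2. Ki from activity over compound concentrations.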

FL-CHK-1 = molecular target: T6, FL-CHK-1 (Homo sapiens, UniProt O14757); assay: CHK-1 coupled spectrophotometric assay (Syntide-2); format: biochemical
T6 construct: C-terminally His-tagged full-length human CHK-1 (FL-CHK-1); made in house; host or cells: baculovirus/insect cells
T6 sequence (O14757 1-476): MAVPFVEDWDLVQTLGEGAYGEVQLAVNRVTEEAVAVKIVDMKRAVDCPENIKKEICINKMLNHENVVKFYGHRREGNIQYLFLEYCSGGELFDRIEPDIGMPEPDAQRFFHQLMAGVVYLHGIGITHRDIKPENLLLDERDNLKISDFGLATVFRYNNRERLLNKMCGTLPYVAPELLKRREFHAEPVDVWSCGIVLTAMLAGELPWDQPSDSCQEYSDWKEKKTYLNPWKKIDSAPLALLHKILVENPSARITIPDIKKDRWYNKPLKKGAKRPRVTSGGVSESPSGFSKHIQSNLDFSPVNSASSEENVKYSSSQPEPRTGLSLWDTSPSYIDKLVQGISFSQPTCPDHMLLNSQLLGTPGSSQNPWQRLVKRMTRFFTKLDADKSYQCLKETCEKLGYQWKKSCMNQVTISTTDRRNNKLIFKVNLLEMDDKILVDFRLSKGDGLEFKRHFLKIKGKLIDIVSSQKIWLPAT
Description: C-terminally His-tagged full-length human CHK-1 (FL-CHK-1) was expressed using the baculovirus/insect cell system. It contains 6 histidine residues (6×His-tag) at the C-terminus of the 476 amino acid human CHK-1. The protein was purified by conventional chromatographic techniques.
The production of ADP from ATP that accompanies phosphoryl transfer to the synthetic substrate peptide Syntide-2 ([…]) was coupled to oxidation of NADH using phosphoenolpyruvate (PEP) through the actions of pyruvate kinase (PK) and lactic dehydrogenase (LDH). The oxidation of NADH was monitored by following the decrease of absorbance at 340 nm (ε340=6.22 cm−1 mM^−1) using a HP8452 spectrophotometer. Typical reaction solutions contained: […]; 0.15 mM NADH; 28 units of LDH/ml; 16 units of PK/ml; 3 mM DTT; 0.125 mM Syntide-2; 0.15 mM ATP; 25 mM MgCl2 in 50 mM TRIS, pH 7.5; and 400 mM NaCl. Assays were initiated with 10 nM of FL-CHK-1. Ki values were determined by measuring initial enzyme activity in the presence of varying concentrations of test compounds. The data were analyzed using Enzyme Kinetic and Kaleidagraph software.

[7] = HUVEC, with albumin, read-out: Huvec + Albumin IC50
[8] = unphosphorylated VEGF-R2 construct
[9] = HUVEC proliferation with albumin, read-out: Huvec + Albumin IC50
[10] = VEGF-stimulated HUVEC proliferation, read-out: HUVEC IC50

| Ki [1] [nM] | inhibition at 1 µM [2] [%] | inhibition at 1 µM (LCK tyrosine kinase) [%] | inhibition at 1 µM [3] [%] | IC50 ([5]; MV522) [nM] | Ki [6] [nM] | Ki [2] [nM] | Ki (LCK tyrosine kinase) [nM] | Ki (FL-CHK-1) [nM] | Ki [1, 8] [nM] | IC50 ([5]; MV522 lung cancer cells) [nM] | melting point [°C] | Compound | IC50 ([4]; HUVEC, read-out: HUVEC IC50) [nM] | IC50 [4, 7] [nM] | IC50 [4, 9] [nM] | IC50 [4, 10] [nM] |
| --- | --- | --- | --- | --- | --- | --- | --- | --- | --- | --- | --- | --- | --- | --- | --- | --- |
| 0.86 | 69 | 84 | 56 | 1400 |  |  |  |  |  |  |  | O=C(Nc1ccc(N2CCNCC2)c(C(F)(F)F)c1)c1cccc(CCc2cc(/C=C/c3cccnc3)n[nH]2)c1 [Example F-5] | 4.1 | 17 |  |  |
| 0.25 |  |  | 14 | > 10000 | 0.65 | 23 | 27 |  |  |  |  | COc1ccc(Nc2cc(CCc3cccc(C(=O)Nc4cc(Cl)c(N(C)C)c(Cl)c4)c3)[nH]n2)cn1 [Example G-7, N-(3,5-Dichloro-4-dimethylaminophenyl)-3-{2-[5-(6-methoxy-pyridin-3-yl)amino-2H-pyrazol-3-yl]ethyl}benzamide] | 17 | 190 |  |  |
| 0.035 |  |  | 62 | 8700 | 0.73 | 20 | 5.8 |  |  |  |  | COc1ccc(Nc2cc(CCc3cccc(C(=O)Nc4ccc(N5CCCC5)c(C(F)(F)F)c4)c3)[nH]n2)cn1 [Example G-8, 3-{2-[5-(6-Methoxypyridin-3-yl)amino-2H-pyrazol-3-yl]-ethyl}-N-(4-pyrrolidin-1-yl-3-trifluoromethylphenyl)benzamide] | 12 | 114 |  |  |
| 0.68 |  |  | 17 | > 10000 |  | 57 | 10.5 |  |  |  |  | COc1ccc(Nc2cc(COc3cc(C(=O)Nc4ccc(N5CCCC5)c(C(F)(F)F)c4)ccc3F)[nH]n2)cn1 [Example J-2, 4-Fluoro-3-[5-(6-methoxy-pyridin-3-yl)amino-2H-pyrazol-3-yl]methoxy-N-(4-pyrrolidin-1-yl-3-trifluoromethyl-phenyl)-benzamide] | 26 | 180 |  |  |
| 3.4 |  |  |  | > 10000 | 1.66 |  |  | 26000 |  |  |  | Cc1ccc2cc(NC(=O)c3cccc(OCc4cncc5ccccc45)c3)ccc2n1 [Example K-3, 3-(Isoquinolin-4-yl)methoxy-N-(2-methyl-quinolin-6-yl)-benzamide hydrochloride] | 430 |  |  |  |
|  | 37 | 22 | 40 |  |  |  |  |  | 0.045 |  |  | CC(C)(C)c1cc(C(=O)Nc2cccc(CSc3ncnc4[nH]ncc34)c2)ccc1O [Example V-4, N-{3-[(1H-pyrazolo[3,4-d]-pyrimidin-4-yl)sulfanylmethyl]phenyl}-(4-hydroxy-3-t-butyl)benzamide] |  |  | > 1000 | 27 |
|  | 11 | 11 |  |  |  |  |  |  | 4.1 | 6100 | 104 to 107 | CC(C)(C)c1cc(C(=O)Nc2cccc(OCc3cccnc3)c2)ccc1O [Example X-4, 3-t-Butyl-4-hydroxy-N-[3-(pyridin-3-ylmethoxy)-phenyl]-benzamide] |  |  | > 1000 | 71 |
